Assay results: patent US4379780A, “17 α-Dihydroequilin hapten and assay method” (American Home Products Corporation, priority 1980, dated 1983)

System: anti-17α-dihydroequilin serum
Test: Cross-reactivity of steroids with the anti-17α-dihydroequilin serum (radioimmunoassay)
Format: binding
Settings: selected rabbit anti-17α-dihydroequilin serum; [2,4-3H]-17α-dihydroequilin tracer
Description: For the assay procedure, a standard was prepared from a stock solution of unlabeled steroid in absolute ethanol (100 ng/ml). A working standard solution containing 1 ng/ml of unlabeled steroid was prepared in sodium phosphate buffer (0.1 M, pH 7, 0.9% NaCl). The labeled [2,4-^3 H]-17α-dihydroequilin solution was prepared in the assay buffer at a concentration of 100 pg/ml. The antiserum was prepared in BSA-assay buffer (1 g BSA/1000 ml sodium phosphate buffer) at a concentraton of one-fifth of the final working dilutions.
The standard curve was established by preparing duplicate 3 ml centrifuge tubes containing 0, 50, 100, 250, 500, 1000, and 2000 pg of the steroid in a total volume of 0.5 ml assay buffer. The sample tubes were prepared in duplicate with hydrolyzed plasma extract (0.1 ml) and assay buffer (0.4 ml) in a total volume of 0.5 ml. To all standard and sample tubes antibody (0.25 ml) and labeled steroid (0.5 ml) were added. These were mixed and allowed to incubate at 4° C. for 18 hr. After addition of 0.2 ml gamma globulin dextran-coated charcoal (4 g charcoal, 0.4 g dextran, 0.8 g human gamma globulin, 200 ml deionized water), each tube was again mixed and placed in a cold room (4° C.) for 20 min. After centrifugation at 2,500 rev./min for 6 min, 0.5 ml of each supernatant was aliquoted into a counting vial. Then 15 ml of a scintillation medium [(4 g of 2,5-diphenyloxazole (PPO), 50 mg of 1,4-di-2-(5-phenyloxazoyl)benzene (dimethyl-POPOP), 100 ml of the aqueous solubilizer Biosolv BBS-3 (Biosolv is a trademark of Beachman Instruments, Irvine, Calif., U.S.A.) and 1000 ml toluene] was added to each vial. The samples were counted to a relative standard error of less than 2% in a Packard model 3320 liquid scintillation counter, Packard Instrument Co., Downers Grove, Ill., U.S.A., see C. Matthijssen and J. W. Goldzieher, Analyt. Biochem., 10, 401 (1965).
The titer was determined from the ability of antibody to bind a constant amount (50 pg) of the labeled steroid.
In the case of `C[C@]12CC[C@@H]3c4ccc(O)cc4C[C@@H](O)[C@]3(O)[C@@H]1CCC2=O` [Equilin-7α,8α-glycol], the “17α-Dihydroequilin Antibody (Percent Cross-Reactivity)” value is reported as < 0.10%.
For `C[C@]12CCC(=O)C=C1CC[C@@H]1[C@@H]2[C@@H](O)C[C@@]2(C)[C@H]1CC[C@]2(O)C(=O)CO` [Cortisol], the “17α-Dihydroequilin Antibody (Percent Cross-Reactivity)” value was < 0.10%.
In the case of `C[C@]12CC[C@H]3[C@@H](CCC4=CC(=O)CC[C@@]43C)[C@@H]1CC[C@@H]2O` [Testosterone], the “17α-Dihydroequilin Antibody (Percent Cross-Reactivity)” value is reported as < 0.10%.
With `C[C@]12CC[C@@H]3c4ccc(O)cc4CC[C@H]3[C@@H]1CCC2=O` [Estrone] the “17α-Dihydroequilin Antibody (Percent Cross-Reactivity)” value was < 0.10%.
With `C[C@]12CC[C@@H](O)C[C@@H]1CC[C@@H]1[C@@H]2CC[C@]2(C)C(=O)CC[C@@H]12` [Androsterone] the “17α-Dihydroequilin Antibody (Percent Cross-Reactivity)” value was < 0.10%.
In the case of `C[C@]12CC[C@@H]3c4ccc(O)cc4CC[C@H]3[C@@H]1CC[C@@H]2O` [Estradiol-17β], the “17α-Dihydroequilin Antibody (Percent Cross-Reactivity)” value is reported as < 0.10%.
With `C[C@]12CC[C@@H]3c4ccc(O)cc4CC[C@H]3[C@@H]1CC[C@H]2O` [Estradiol-17α] the “17α-Dihydroequilin Antibody (Percent Cross-Reactivity)” value was < 0.10%.
For `C[C@]12CCc3c(ccc4cc(O)ccc34)[C@@H]1CC[C@H]2O` [17α-Dihydroequilenin], the “17α-Dihydroequilin Antibody (Percent Cross-Reactivity)” value was < 0.10%.
In the case of `CC(=O)[C@H]1CC[C@H]2[C@@H]3CCC4=CC(=O)CC[C@]4(C)[C@H]3CC[C@]12C` [Progesterone], the “17α-Dihydroequilin Antibody (Percent Cross-Reactivity)” value is reported as < 0.10%.
In the case of `C[C@]12CC[C@H](O)CC1=CC[C@@H]1[C@@H]2CC[C@]2(C)C(=O)CC[C@@H]12` [Dehydroepiandrosterone], the “17α-Dihydroequilin Antibody (Percent Cross-Reactivity)” value is reported as < 0.10%.
For `C[C@]12CC[C@@H]3c4ccc(O)cc4C=C[C@H]3[C@@H]1CCC2=O` [6-Dehydroestrone], the “17α-Dihydroequilin Antibody (Percent Cross-Reactivity)” value was < 0.10%.
In the case of `C[C@]12CC[C@H]3C(=CCc4cc(O)ccc43)[C@@H]1CCC2=O` [Equilin], the “17α-Dihydroequilin Antibody (Percent Cross-Reactivity)” value is reported as 0.7%.
In the case of `C[C@]12CC[C@@H]3c4ccc(OS(=O)(=O)O)cc4CC[C@H]3[C@@H]1CC[C@H]2O` [17α-Estradiol 3-sulfate], the “17α-Dihydroequilin Antibody (Percent Cross-Reactivity)” value is reported as < 0.10%.
In the case of `C[C@]12CCc3c(ccc4cc(O)ccc34)[C@@H]1CC[C@@H]2O` [17β-Dihydroequilenin], the “17α-Dihydroequilin Antibody (Percent Cross-Reactivity)” value is reported as < 0.10%.
With `C[C@]12CCC3=C(CCc4cc(O)ccc43)[C@@H]1CCC2=O` [8-Dehydroestrone] the “17α-Dihydroequilin Antibody (Percent Cross-Reactivity)” value was < 0.10%.
In the case of `C[C@]12CCc3c(ccc4cc(O)ccc34)[C@@H]1CCC2=O` [Equilenin], the “17α-Dihydroequilin Antibody (Percent Cross-Reactivity)” value is reported as 0.40%.
For `C[C@]12CC[C@H]3C(=CCc4cc(O)ccc43)[C@@H]1CC[C@@H]2O` [17β-Dihydroequilin], the “17α-Dihydroequilin Antibody (Percent Cross-Reactivity)” value was < 0.10%.
With `C[C@]12CCC(=O)C=C1CC[C@@H]1[C@@H]2CC[C@]2(C)C(=O)CC[C@@H]12` [4-Androstene-3,17-dione] the “17α-Dihydroequilin Antibody (Percent Cross-Reactivity)” value was < 0.10%.
In the case of `C[C@]12CC[C@H]3C(=CCc4cc(O)ccc43)[C@@H]1CC[C@H]2O` [17α-Dihydroequilin, 1,3,5(10),7-estratetraene-3,17α-diol], the “17α-Dihydroequilin Antibody (Percent Cross-Reactivity)” value is reported as 100.0%.
With `C[C@]12CC[C@H]3C(=CCc4cc(OS(=O)(=O)O)ccc43)[C@@H]1CC[C@H]2O` [17α-Dihydroequilin 3-sulfate] the “17α-Dihydroequilin Antibody (Percent Cross-Reactivity)” value was 9.04%.

System: not listed separately
Test: Oxidation of 17α-dihydroequilin to 17α-dihydroequilenin during formic acid hydrolysis (HPLC)
Format: physicochemical
Settings: 0.1% (w/v) ascorbic acid added before hydrolysis; 120 min
Description: Plasma (0.2 ml) and distilled water (0.7 ml) were added to a 16×125 mm tube and mixed. [6,7-^3 H]-Estrone-3-sulfate (0.1 ml, 2000 cpm, obtained from New England Nuclear Corp.), and [2,4-^3 H]-17α-dihydroequilin (0.1 ml, 2000 cpm) was then added to correct for recovery through the assay procedure, and the sample again mixed well and allowed to stand at room temperature for 30 min. Diethyl ether (2 ml) was added for extraction of the free compound. The extraction was repeated three times and the combined extracts washed with distilled water (1 ml) and the solvent removed by evaporation. The aqueous phase containing the conjugates was re-extracted with 2 ml of ethyl acetate-ethanol (4:1, v/v). The extraction was repeated two more times and the combined extracts were dried in a centrifuge tube (12 ml) under a stream of nitrogen. Absolute ethanol was added to those tubes which contained residual water and once again dried under nitrogen. The conjugate fraction was hydrolyzed with formic acid. […] The tube was tightly closed, vortexed, and sonified for 10 min before being placed in a 37° C. water bath for 2 hr. The hydrolyzed sample was taken to dryness, sodium phosphate buffer (1 ml) was added, and the solution was vortexed and allowed to stand at 20° C. for 10 min. The hydrolyzed free compound was extracted with diethyl ether (2 ml) three times and taken to dryness. […]
In the case of `C[C@]12CC[C@H]3C(=CCc4cc(O)ccc43)[C@@H]1CC[C@H]2O` [17α-Dihydroequilin, 1,3,5(10),7-estratetraene-3,17α-diol], the “17α-dihydroequilin oxidized to 17α-dihydroequilenin during hydrolysis with formic acid” value is reported as 2-3%.

Same assay, conditions: without ascorbic acid; 120 min
For `C[C@]12CC[C@H]3C(=CCc4cc(O)ccc43)[C@@H]1CC[C@H]2O` [17α-Dihydroequilin, 1,3,5(10),7-estratetraene-3,17α-diol], the “17α-dihydroequilin oxidized to 17α-dihydroequilenin during hydrolysis with formic acid” value was 13-16%.
